Our source for the IC50 values is US9776995B2, “Bicyclic sulfonamide compounds as sodium channel inhibitors” (AMGEN INC., priority 2013, dated 2017).

The target of the first test is Nav 1.7 (Homo sapiens (Human), UniProt Q15858). The test is described as follows: Nav 1.7 in vitro PX assay (PatchXpress whole cell voltage clamp).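 Further: holding potential set for 20 to 50% inactivation, sodium current evoked by a 20 ms step to −10 mV, peak current inhibition read after compound exposure, 3–5 cells per concentration.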 The class given is cell-based.
Sequence of Nav 1.7 (Q15858 whole entry): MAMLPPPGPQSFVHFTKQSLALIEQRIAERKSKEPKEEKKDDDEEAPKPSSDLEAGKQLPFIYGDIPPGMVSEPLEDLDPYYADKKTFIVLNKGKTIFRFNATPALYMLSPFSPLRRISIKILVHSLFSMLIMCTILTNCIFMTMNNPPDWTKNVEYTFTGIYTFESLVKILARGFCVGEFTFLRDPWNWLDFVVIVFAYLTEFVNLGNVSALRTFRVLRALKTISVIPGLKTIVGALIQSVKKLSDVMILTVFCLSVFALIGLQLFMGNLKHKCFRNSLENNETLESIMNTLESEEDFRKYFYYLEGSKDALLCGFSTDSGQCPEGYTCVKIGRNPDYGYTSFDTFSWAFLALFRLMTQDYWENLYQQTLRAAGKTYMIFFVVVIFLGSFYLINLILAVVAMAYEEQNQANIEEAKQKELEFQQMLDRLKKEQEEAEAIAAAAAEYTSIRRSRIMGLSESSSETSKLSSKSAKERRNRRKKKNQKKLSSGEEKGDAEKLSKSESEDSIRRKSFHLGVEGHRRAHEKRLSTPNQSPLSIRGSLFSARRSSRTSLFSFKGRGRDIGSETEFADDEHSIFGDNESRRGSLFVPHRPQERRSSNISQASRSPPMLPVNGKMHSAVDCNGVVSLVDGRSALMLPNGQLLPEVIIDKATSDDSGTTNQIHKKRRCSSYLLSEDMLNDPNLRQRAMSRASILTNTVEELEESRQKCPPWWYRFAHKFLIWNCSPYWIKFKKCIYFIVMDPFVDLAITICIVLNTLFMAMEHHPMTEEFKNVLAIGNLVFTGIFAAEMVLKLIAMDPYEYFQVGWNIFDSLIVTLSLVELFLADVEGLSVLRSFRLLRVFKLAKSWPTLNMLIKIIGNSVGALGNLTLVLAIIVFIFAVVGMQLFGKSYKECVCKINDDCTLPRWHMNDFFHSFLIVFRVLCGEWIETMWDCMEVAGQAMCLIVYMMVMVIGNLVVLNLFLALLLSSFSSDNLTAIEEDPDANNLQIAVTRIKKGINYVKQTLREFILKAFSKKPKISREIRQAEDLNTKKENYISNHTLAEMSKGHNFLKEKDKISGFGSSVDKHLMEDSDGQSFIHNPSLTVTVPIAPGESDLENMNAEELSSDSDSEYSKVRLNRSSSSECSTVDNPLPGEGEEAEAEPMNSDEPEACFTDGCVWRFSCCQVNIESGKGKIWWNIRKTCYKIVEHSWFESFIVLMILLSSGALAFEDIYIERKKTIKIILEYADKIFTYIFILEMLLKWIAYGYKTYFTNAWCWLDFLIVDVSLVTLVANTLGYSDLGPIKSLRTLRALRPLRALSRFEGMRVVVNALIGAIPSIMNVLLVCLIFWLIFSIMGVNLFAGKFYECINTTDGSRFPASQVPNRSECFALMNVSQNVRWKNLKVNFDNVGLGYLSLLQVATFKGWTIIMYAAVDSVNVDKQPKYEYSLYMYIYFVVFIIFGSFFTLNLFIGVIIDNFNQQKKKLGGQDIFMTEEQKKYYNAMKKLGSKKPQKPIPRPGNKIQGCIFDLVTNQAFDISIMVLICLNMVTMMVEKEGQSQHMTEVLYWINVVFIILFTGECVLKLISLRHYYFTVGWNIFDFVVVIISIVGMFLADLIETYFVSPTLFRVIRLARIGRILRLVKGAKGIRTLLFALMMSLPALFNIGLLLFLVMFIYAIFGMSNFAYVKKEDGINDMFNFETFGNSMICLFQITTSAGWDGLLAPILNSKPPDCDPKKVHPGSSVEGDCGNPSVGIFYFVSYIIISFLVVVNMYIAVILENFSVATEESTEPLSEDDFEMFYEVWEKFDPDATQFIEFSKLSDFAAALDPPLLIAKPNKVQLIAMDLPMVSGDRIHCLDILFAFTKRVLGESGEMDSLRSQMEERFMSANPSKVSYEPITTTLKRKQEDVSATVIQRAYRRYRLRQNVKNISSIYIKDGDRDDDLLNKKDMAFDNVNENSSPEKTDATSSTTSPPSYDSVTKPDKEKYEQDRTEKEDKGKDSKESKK
Conditions: not given
On to `COc1cc(-c2ccc(F)c(Cl)c2)c(Cl)cc1-c1ncnc2cc(S(=O)(=O)Nc3ncccn3)ccc12` [Example 329, 4-(2,3′-dichloro-4′-fluoro-5-methoxy-[1,1′-biphenyl]-4-yl)-N-(pyrimidin-2-yl)quinazoline-7-sulfonamide], for which the IC50 (as a rule, the concentration at which inhibition is half-maximal) was 43 nM.

The same test, now with this note: HEK 293 cells stably transfected with human Nav1.7; PatchXpress; partially inactivated state.
`COc1cc(-c2cccc(Cl)c2)c(F)cc1-c1ncnc2cc(S(=O)(=O)Nc3ncccn3)ccc12` [Example 315, 4-(3′-chloro-2-fluoro-5-methoxy-4-biphenylyl)-N-2-pyrimidinyl-7-quinazolinesulfonamide] had an IC50 of 48 nM. Take `COc1cc(F)cc(-c2cc(OC)c(-c3nccc4cc(S(=O)(=O)Nc5ccon5)ccc34)cc2F)c1` [Example 316, 1-(2,3′-difluoro-5,5′-dimethoxy-4-biphenylyl)-N-3-isoxazolyl-6-isoquinolinesulfonamide]: the IC50 was determined as 40 nM. For the compound `COc1cc(-c2cccc(F)c2)c(Cl)cc1-c1cn(C)c(=O)c2cc(S(=O)(=O)Nc3ccon3)ccc12` [Example 328, 4-(2-chloro-3′-fluoro-5-methoxy-[1,1′-biphenyl]-4-yl)-N-(isoxazol-3-yl)-2-methyl-1-oxo-1,2-dihydroisoquinoline-7-sulfonamide trifluoromethanesulfonate], 68 nM corresponded to half-maximal inhibition (IC50).

The compound `COc1cc(-c2cccc(F)c2)c(Cl)cc1-c1c(N)cnc2cc(S(=O)(=O)Nc3ccon3)ccc12` [Example 336, 3-amino-4-(2-chloro-3′-fluoro-5-methoxy-[1,1′-biphenyl]-4-yl)-N-(isoxazol-3-yl)quinoline-7-sulfonamide] registered an IC50 of 35 nM.

In turn, `COc1cc(-c2cccc(Cl)c2)c(F)cc1-c1c[nH]c(=O)c2cc(S(=O)(=O)Nc3ccon3)ccc12` [Example 343, 4-(3′-chloro-2-fluoro-5-methoxy-[1,1′-biphenyl]-4-yl)-N-(isoxazol-3-yl)-1-oxo-1,2-dihydroisoquinoline-7-sulfonamide] returned an IC50 of 163 nM.

As for `COc1cc(-c2cccc(Cl)c2)c(F)cc1-c1cn(C)c(=O)c2cc(S(=O)(=O)Nc3ccon3)ccc12` [Example 344, 4-(3′-chloro-2-fluoro-5-methoxy-[1,1′-biphenyl]-4-yl)-N-(isoxazol-3-yl)-2-methyl-1-oxo-1,2-dihydroisoquinoline-7-sulfonamide], it took 49 nM to reach half-maximal inhibition (IC50). The compound `COc1cc(-c2ccc(F)c(Cl)c2)c(C)cc1-c1ncnc2cc(S(=O)(=O)Nc3ncccn3)ccc12` [Example 345, 4-(3′-chloro-4′-fluoro-5-methoxy-2-methyl-[1,1′-biphenyl]-4-yl)-N-(pyrimidin-2-yl)quinazoline-7-sulfonamide] displayed a half-maximal inhibitory concentration (IC50) of 78 nM.

The same test, now with this note: in-vitro Nav 1.7 PX (PatchXpress).
Regarding `COc1cc(-c2cc(F)cc(Cl)c2)c(C)cc1-c1nccc2cc(S(=O)(=O)Nc3ccon3)ccc12` [Example 285, 1-(3′-chloro-5′-fluoro-5-methoxy-2-methyl-4-biphenylyl)-N-3-isoxazolyl-6-isoquinolinesulfonamide], it took 58 nM to reach half-maximal inhibition (IC50). For the compound `COc1cc(-c2ccc(Cl)c(F)c2)c(C)cc1-c1nccc2cc(S(=O)(=O)Nc3ccon3)ccc12` [Example 286, 1-(4′-chloro-3′-fluoro-5-methoxy-2-methyl-4-biphenylyl)-N-3-isoxazolyl-6-isoquinolinesulfonamide], half-maximal inhibition (IC50) required 188 nM. Turning to `COc1cc(-c2ccc(C)c(Cl)c2)ccc1-c1nccc2cc(S(=O)(=O)Nc3ccon3)ccc12` [Example 287, 1-(3′-chloro-3-methoxy-4′-methyl-4-biphenylyl)-N-3-isoxazolyl-6-isoquinolinesulfonamide], the IC50 was 111 nM. In the case of `COc1cc(-c2ccc(Cl)c(C)c2)ccc1-c1nccc2cc(S(=O)(=O)Nc3ccon3)ccc12` [Example 288, 1-(4′-chloro-3-methoxy-3′-methyl-4-biphenylyl)-N-3-isoxazolyl-6-isoquinolinesulfonamide], the IC50 was 77.5 nM. Still for that read-out and setting: for `COc1cc(-c2cccc(F)c2)c(Cl)cc1-c1ncnc2cc(S(=O)(=O)Nc3ncc(F)cn3)ccc12` [Example 289, 4-(2-chloro-3′-fluoro-5-methoxy-4-biphenylyl)-N-(5-fluoro-2-pyrimidinyl)-7-quinazolinesulfonamide] the value was 89.5 nM; for `COc1cc(-c2ccc(Cl)c(F)c2)ccc1-c1nccc2cc(S(=O)(=O)Nc3ccon3)ccc12` [Example 290, 1-(4′-chloro-3′-fluoro-3-methoxy-4-biphenylyl)-N-3-isoxazolyl-6-isoquinolinesulfonamide], 137 nM. `COc1cc(-c2cccc(F)c2)c(Cl)cc1-c1cccc2cc(S(=O)(=O)Nc3ccon3)ccc12` [Example 291, 5-(2-chloro-3′-fluoro-5-methoxy-4-biphenylyl)-N-3-isoxazolyl-2-naphthalenesulfonamide] gave a half-maximal inhibitory concentration (IC50) of 1160 nM. On to `COc1cc(-c2cccc(F)c2)c(C#N)cc1-c1cccc2cc(S(=O)(=O)Nc3ccon3)ccc12` [Example 292, 5-(2-cyano-3′-fluoro-5-methoxy-4-biphenylyl)-N-3-isoxazolyl-2-naphthalenesulfonamide], for which the midpoint of inhibition, the IC50, lay at 256 nM. Take `COc1cc(-c2ccc(Cl)c(F)c2)ccc1-c1nccc2cc(S(=O)(=O)Nc3ncccn3)ccc12` [Example 293, 1-(4′-chloro-3′-fluoro-3-methoxy-4-biphenylyl)-N-2-pyrimidinyl-6-isoquinolinesulfonamide]: half-maximal inhibition (IC50) required 407 nM. On the same count and under the same terms, next, `COc1cc(-c2cccc(F)c2)c(Cl)cc1-c1nccc2cc(S(=O)(=O)Nc3ncc(F)cn3)ccc12` [Example 294, 1-(2-chloro-3′-fluoro-5-methoxy-4-biphenylyl)-N-(5-fluoro-2-pyrimidinyl)-6-isoquinolinesulfonamide]: 256 nM. In the case of `COc1cc(-c2cc(C)c(Cl)c(F)c2)c(F)cc1-c1ncnc2cc(S(=O)(=O)Nc3ccon3)ccc12` [Example 295, 4-(4′-chloro-2,3′-difluoro-5-methoxy-5′-methyl-4-biphenylyl)-N-3-isoxazolyl-7-quinazolinesulfonamide], 59 nM corresponded to half-maximal inhibition (IC50). On the same count and under the same terms, for `COc1cc(-c2ccc(C)c(Cl)c2F)c(F)cc1-c1ncnc2cc(S(=O)(=O)Nc3ccon3)ccc12` [Example 296, 4-(3′-chloro-2,2′-difluoro-5-methoxy-4′-methyl-4-biphenylyl)-N-3-isoxazolyl-7-quinazolinesulfonamide] the value was 105 nM; for `COc1cc(-c2cc(C)cc(Cl)c2)c(F)cc1-c1ncnc2cc(S(=O)(=O)Nc3ccon3)ccc12` [Example 297, 4-(3′-chloro-2-fluoro-5-methoxy-5′-methyl-4-biphenylyl)-N-3-isoxazolyl-7-quinazolinesulfonamide], 74 nM; for `COc1cc(-c2cc(Cl)cc(Cl)c2)c(F)cc1-c1ncnc2cc(S(=O)(=O)Nc3ccon3)ccc12` [Example 300, 4-(3′,5′-dichloro-2-fluoro-5-methoxy-4-biphenylyl)-N-3-isoxazolyl-7-quinazolinesulfonamide], 26 nM. On to `COc1cc(-c2cc(C)cc(F)c2)c(F)cc1-c1ncnc2cc(S(=O)(=O)Nc3ccon3)ccc12` [Example 301, 4-(2,3′-difluoro-5-methoxy-5′-methyl-4-biphenylyl)-N-3-isoxazolyl-7-quinazolinesulfonamide], for which the midpoint of inhibition, the IC50, lay at 32 nM. Still for that read-out and setting: for `COc1cc(-c2cc(F)cc(Cl)c2)c(F)cc1-c1ncnc2cc(S(=O)(=O)Nc3ccon3)ccc12` [Example 302, 4-(3′-chloro-2,5′-difluoro-5-methoxy-4-biphenylyl)-N-3-isoxazolyl-7-quinazolinesulfonamide] the value was 22 nM. Same read-out and setting: next, `COc1cc(-c2ccc(OCC(F)(F)F)nc2)ccc1-c1nccc2cc(S(=O)(=O)Nc3ccon3)ccc12` [Example 303, N-3-isoxazolyl-1-(2-methoxy-4-(6-(2,2,2-trifluoroethoxy)-3-pyridinyl)phenyl)-6-isoquinolinesulfonamide]: 480 nM; `CCOc1ccc(-c2cc(OC)c(-c3ncnc4cc(S(=O)(=O)Nc5ccon5)ccc34)cc2F)cc1C` [Example 304, 4-(4′-ethoxy-2-fluoro-5-methoxy-3′-methyl-4-biphenylyl)-N-3-isoxazolyl-7-quinazolinesulfonamide]: 610 nM.

Turning to `COc1cc(F)cc(-c2cc(OC)c(-c3nccc4cc(S(=O)(=O)Nc5ccon5)ccc34)cc2F)c1` [Example 305, 1-(2,3′-difluoro-5,5′-dimethoxy-4-biphenylyl)-N-3-isoxazolyl-6-isoquinolinesulfonamide], 40 nM corresponded to half-maximal inhibition (IC50). Compound `COc1cc(-c2cc(F)cc(C3CC3)c2)c(C)cc1-c1ncnc2cc(S(=O)(=O)Nc3ccon3)ccc12` [Example 306, 4-(3′-cyclopropyl-5′-fluoro-5-methoxy-2-methyl-4-biphenylyl)-N-3-isoxazolyl-7-quinazolinesulfonamide] gave a 50% inhibitory concentration (IC50) of 61 nM.

With `COc1cc(-c2cc(C)ccc2F)c(C)cc1-c1ncnc2cc(S(=O)(=O)Nc3ccon3)ccc12` [Example 307, 4-(2′-fluoro-5-methoxy-2,5′-dimethyl-4-biphenylyl)-N-3-isoxazolyl-7-quinazolinesulfonamide], the IC50 turned out to be 113 nM. With `COc1cc(-c2cc(Cl)ccc2F)c(C)cc1-c1ncnc2cc(S(=O)(=O)Nc3ccon3)ccc12` [Example 308, 4-(5′-chloro-2′-fluoro-5-methoxy-2-methyl-4-biphenylyl)-N-3-isoxazolyl-7-quinazolinesulfonamide], the IC50 came to 56 nM. Still for that read-out and setting: for `COc1cc(-c2cc(C)cc(F)c2)c(Cl)cc1-c1ncnc2cc(S(=O)(=O)Nc3ccon3)ccc12` [Example 309, 4-(2-chloro-3′-fluoro-5-methoxy-5′-methyl-4-biphenylyl)-N-3-isoxazolyl-7-quinazolinesulfonamide] the value was 40 nM; for `COc1cc(-c2cc(F)cc(Cl)c2)c(Cl)cc1-c1ncnc2cc(S(=O)(=O)Nc3ccon3)ccc12` [Example 310, 4-(2,3′-dichloro-5′-fluoro-5-methoxy-4-biphenylyl)-N-3-isoxazolyl-7-quinazolinesulfonamide], 45 nM; for `COc1cc(-c2cc(C)cc(Cl)c2)c(Cl)cc1-c1ncnc2cc(S(=O)(=O)Nc3ccon3)ccc12` [Example 311, 4-(2,3′-dichloro-5-methoxy-5′-methyl-4-biphenylyl)-N-3-isoxazolyl-7-quinazolinesulfonamide], 40 nM.
